The target of data set [1] is T1, human calcitonin receptor (Homo sapiens, UniProt P30988).
T1 construct: expressed in transfected cells; host or cells: BHK570
T1 sequence (P30988 25-474): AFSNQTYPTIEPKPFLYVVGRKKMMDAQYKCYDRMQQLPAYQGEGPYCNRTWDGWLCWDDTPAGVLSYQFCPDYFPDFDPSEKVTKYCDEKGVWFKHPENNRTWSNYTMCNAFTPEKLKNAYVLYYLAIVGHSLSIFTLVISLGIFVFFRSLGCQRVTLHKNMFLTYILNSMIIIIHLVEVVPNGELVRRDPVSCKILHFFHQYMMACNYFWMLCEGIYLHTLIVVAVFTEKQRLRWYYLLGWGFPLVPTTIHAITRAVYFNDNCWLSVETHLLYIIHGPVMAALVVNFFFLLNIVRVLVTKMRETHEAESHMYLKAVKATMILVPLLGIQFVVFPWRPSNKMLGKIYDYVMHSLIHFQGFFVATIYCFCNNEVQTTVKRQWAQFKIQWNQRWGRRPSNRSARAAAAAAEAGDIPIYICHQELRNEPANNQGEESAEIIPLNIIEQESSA
In words: Assay (II)a functional CRE-luciferase assay, human calcitonin receptor. In kind it is cell-based.

Data set [2] has as its target T2, human amylin receptor (amylin 3(a) receptor: human calcitonin receptor + RAMP-3) (Homo sapiens, UniProt O60896+P30988).
T2 construct: expressed in transfected cells; host or cells: BHK570
T2 sequence (P30988 25-474): T1 sequence (P30988 25-474)
T2 sequence (O60896 24-148 partner): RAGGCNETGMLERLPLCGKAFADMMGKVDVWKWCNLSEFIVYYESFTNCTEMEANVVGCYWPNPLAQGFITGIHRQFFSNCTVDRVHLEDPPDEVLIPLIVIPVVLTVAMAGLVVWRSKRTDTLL
Briefly: Assay (II)a functional CRE-luciferase assay, human amylin receptor. In kind it is cell-based. Conditions: Table 2; BHK amylin 3(a)-receptor/CRE-luc cells.

Data set [3] can be described thus: Assay (III) ThT fibrillation assay for physical stability. In kind it is physicochemical. The method, boiled down:
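Freshly prepared formulations, pH-adjusted, with 1 μM ThT; four or eight replicates incubated at 37 °C under 960 rpm orbital shaking. Fluorescence (ex 444/em 485 nm) read every 20 min; […]. Peptide concentration measured by RP-HPLC before and after the run.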

Data set [4] is described as follows: Assay (IV) determination of solubility. In kind it is physicochemical. The method, boiled down: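 Eight 100 mM buffers (glycylglycine pH 3.0–5.0, bistrispropane pH 6.0–8.0) each received an equal volume of polypeptide dissolved in water at ~500 nmol/ml. Soluble polypeptide was measured by HPLC following 18 hours at room temperature and centrifugation.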
[5] abbreviates: bistrispropane buffer, pH 6, pH 6.0, read-out: Solubility pH 6.0.
Where [6] appears, read: bistrispropane buffer, pH 6.5, pH 6.5, read-out: Solubility pH 6.5.
Where [7] appears, read: bistrispropane buffer, pH 7, pH 7.0, 18 hours at room temperature, Table 3, read-out: Solubility pH 7.0.
Setting [8] is: bistrispropane buffer, pH 7, pH 7.0, read-out: Solubility pH 7.0.
Where [9] appears, read: bistrispropane buffer, pH 7.5, pH 7.5, read-out: Solubility pH 7.5.
Setting [10] is: bistrispropane buffer, pH 8, pH 8.0, read-out: Solubility pH 8.0.
Setting [11] is: glycylglycine buffer, pH 3, pH 3.0, read-out: Solubility pH 3.0.
[12] abbreviates: glycylglycine buffer, pH 4, pH 4.0, 18 hours at room temperature, Table 2, read-out: Solubility pH 4.0.
The mark [13] stands for this setting: glycylglycine buffer, pH 4, pH 4.0, read-out: Solubility pH 4.0.
The mark [14] stands for this setting: glycylglycine buffer, pH 5, pH 5.0, read-out: Solubility pH 5.0.
[15] abbreviates: Table 7, human calcitonin (CTa) receptor.

In brackets after ≈: the same amount, converted by molar mass. Where two headings read alike, the source gives them in different places. Starred links: 1 amine or outer side, 2 acyl side, 3 side chain; linkers in the order of their positions; H or OH if unused. Positions of bridges follow the written chain, without caps; N, C: chain ends. Residues, ends and D or L forms follow the SMILES beside them. Groups on a side chain read outwards from the residue. *: point of attachment. C20 diacid = O=C(O)CCCCCCCCCCCCCCCCCCC(=O)*; C18 diacid = O=C(O)CCCCCCCCCCCCCCCCC(=O)*; γGlu = O=C(O)[C@H](CCC(=O)[*:2])N[*:1]; AEEA = NCCOCCOCC(=O)O

On to `CC[C@H](C)[C@H](NC(=O)[C@@H]1CCCN1C(=O)CNC(=O)[C@H](Cc1ccccc1)NC(=O)[C@H](CC(N)=O)NC(=O)[C@H](CO)NC(=O)[C@H](CO)NC(=O)[C@H](CO)NC(=O)[C@H](Cc1c[nH]cn1)NC(=O)[C@H](CCCCNC(=O)COCCOCCNC(=O)COCCOCCNC(=O)CC[C@H](NC(=O)CCCCCCCCCCCCCCCCC(=O)O)C(=O)O)NC(=O)[C@H](CC(C)C)NC(=O)[C@H](Cc1ccccc1)NC(=O)[C@H](CCC(=O)O)NC(=O)[C@H](C)NC(=O)[C@H](CC(C)C)NC(=O)[C@H](CCCNC(=N)N)NC(=O)[C@H](CCC(N)=O)NC(=O)[C@@H](NC(=O)[C@H](C)NC(=O)[C@@H]1CSSC[C@H](NC(=O)[C@@H](N)CCCCN)C(=O)N[C@@H](CC(N)=O)C(=O)N[C@@H]([C@@H](C)O)C(=O)N[C@@H](C)C(=O)N[C@@H]([C@@H](C)O)C(=O)N1)[C@@H](C)O)C(=O)N[C@@H](CC(C)C)C(=O)N1CCC[C@H]1C(=O)N1CCC[C@H]1C(=O)N[C@H](C(=O)N[C@@H](CC(N)=O)C(=O)N[C@H](C(=O)NCC(=O)N[C@@H](CO)C(=O)N[C@@H](CCC(=O)O)C(=O)N[C@H](C(=O)N[C@@H](Cc1ccc(O)cc1)C(N)=O)[C@@H](C)O)C(C)C)[C@@H](C)O` [Example 83, N-epsilon17-[2-(2-{2-[2-(2-{2-[(S)-4-Carboxy-4-(17-carboxyheptadecanoylamino)butyrylamino]ethoxy}ethoxy)acetylamino]ethoxy}ethoxy)acetyl]-[Glu14,Lys17,Ser21,Glu35]-pramlintide] (H-KCNTATCATQRLAEFLK([AEEA-AEEA-γGlu-C18 diacid])HSSSNFGPILPPTNVGSETY-NH2; disulfide 2-7 (inferred); N-terminus and C-terminus assumed), for which the EC50 in data set [1] (Table 11, read-out: CTa receptor human EC50) is 8.43 nM; in data set [2], 1.75 nM. In addition, the “ThT pH 4.0 lag time” value in data set [3] (Table 8), in data set [3] (Table 9) and in data set [3] (ThT fibrillation assay) was over 45 h throughout. The “ThT pH 4.0 lag time (h)” value in data set [3] (ThT fibrillation assay) is recorded as over 45 h. Also, the solubility at 18 h is over 200 µM in data set [4] (setting [5]); over 200 µM in data set [4] (setting [6]); over 200 µM in data set [4] (setting [7]); over 200 µM in data set [4] (bistrispropane buffer, pH 7, pH 7.0, Table 8, read-out: Solubility pH 7.0); over 200 µM in data set [4] (bistrispropane buffer, pH 7, pH 7.0, Table 9, read-out: Solubility pH 7.0); over 200 µM in data set [4] (setting [8]). Further, the solubility at 18 h is over 200 µM in data set [4] (bistrispropane buffer, pH 7.5, pH 7.5, Table 9, read-out: Solubility pH 7.5); over 200 µM in data set [4] (setting [9]); over 200 µM in data set [4] (setting [10]); over 200 µM in data set [4] (setting [11]); over 200 µM in data set [4] (setting [12]); over 200 µM in data set [4] (setting [13]). Besides, the solubility at 18 h in data set [4] (setting [14]) was over 200 µM.
In the case of `CC[C@H](C)[C@H](NC(=O)[C@@H]1CCCN1C(=O)CNC(=O)[C@H](Cc1ccccc1)NC(=O)[C@H](CC(N)=O)NC(=O)[C@H](CC(N)=O)NC(=O)[C@H](CO)NC(=O)[C@H](CO)NC(=O)[C@H](Cc1c[nH]cn1)NC(=O)[C@H](Cc1c[nH]cn1)NC(=O)[C@H](CC(C)C)NC(=O)[C@H](Cc1ccccc1)NC(=O)[C@H](CCC(=O)O)NC(=O)[C@H](C)NC(=O)[C@H](CC(C)C)NC(=O)[C@H](CCCNC(=N)N)NC(=O)[C@H](CCC(N)=O)NC(=O)[C@@H](NC(=O)[C@H](C)NC(=O)[C@@H]1CSSC[C@H](NC(=O)[C@H](CCCCN)NC(=O)[C@H](CO)NC(=O)CC[C@H](NC(=O)CCCCCCCCCCCCCCCCCCC(=O)O)C(=O)O)C(=O)N[C@@H](CC(N)=O)C(=O)N[C@@H]([C@@H](C)O)C(=O)N[C@@H](C)C(=O)N[C@@H]([C@@H](C)O)C(=O)N1)[C@@H](C)O)C(=O)N[C@@H](CC(C)C)C(=O)N1CCC[C@H]1C(=O)N1CCC[C@H]1C(=O)N[C@H](C(=O)N[C@@H](CC(N)=O)C(=O)N[C@H](C(=O)NCC(=O)N[C@@H](CO)C(=O)N[C@@H](Cc1c[nH]cn1)C(=O)N[C@H](C(=O)N[C@@H](Cc1ccc(O)cc1)C(N)=O)[C@@H](C)O)C(C)C)[C@@H](C)O` [Example 85, N-alpha-[(S)-4-Carboxy-4-(19-carboxynonadecanoylamino)butyryl]-Ser-[Glu14,His17,His35]-pramlintide] ({C20 diacid-γGlu}-SKCNTATCATQRLAEFLHHSSNNFGPILPPTNVGSHTY-NH2; disulfide 3-8 (inferred); C-terminus assumed), the EC50 in data set [1] (setting [15]) is 0.153 nM; in data set [2] it was 0.133 nM. In addition, the “ThT pH 4.0 lag time” value in data set [3] (ThT fibrillation assay) is reported as over 45 h. Also, the “ThT pH 4.0 lag time (h)” value in data set [3] (ThT fibrillation assay) is recorded as over 45 h. The solubility at 18 h was 185 µM (≈ 845 µg/mL) in data set [4] (setting [5]); 64 µM (≈ 292 µg/mL) in data set [4] (setting [6]); 22 µM (≈ 100 µg/mL) in data set [4] (setting [8]); 47 µM (≈ 215 µg/mL) in data set [4] (setting [9]); 109 µM (≈ 498 µg/mL) in data set [4] (setting [10]); over 200 µM in data set [4] (setting [11]). For the same compound, the solubility at 18 h in data set [4] (setting [12]), in data set [4] (setting [13]) and in data set [4] (setting [14]) was over 200 µM in each case.
Regarding `CC[C@H](C)[C@H](NC(=O)[C@@H]1CCCN1C(=O)CNC(=O)[C@H](Cc1ccccc1)NC(=O)[C@H](CC(N)=O)NC(=O)[C@H](CC(N)=O)NC(=O)[C@H](CO)NC(=O)[C@H](CO)NC(=O)[C@H](Cc1c[nH]cn1)NC(=O)[C@@H](NC(=O)[C@H](CC(C)C)NC(=O)[C@H](Cc1ccccc1)NC(=O)[C@H](CCC(=O)O)NC(=O)[C@H](C)NC(=O)[C@H](CC(C)C)NC(=O)[C@H](CCCNC(=N)N)NC(=O)[C@H](CCC(N)=O)NC(=O)[C@@H](NC(=O)[C@H](C)NC(=O)[C@@H]1CSSC[C@H](NC(=O)[C@H](CCCCN)NC(=O)CC[C@H](NC(=O)CCCCCCCCCCCCCCCCCCC(=O)O)C(=O)O)C(=O)N[C@@H](CC(N)=O)C(=O)N[C@@H]([C@@H](C)O)C(=O)N[C@@H](C)C(=O)N[C@@H]([C@@H](C)O)C(=O)N1)[C@@H](C)O)C(C)C)C(=O)N[C@@H](CC(C)C)C(=O)N1CCC[C@H]1C(=O)N1CCC[C@H]1C(=O)N[C@H](C(=O)N[C@@H](CC(N)=O)C(=O)N[C@H](C(=O)NCC(=O)N[C@@H](CO)C(=O)N[C@@H](CC(N)=O)C(=O)N[C@H](C(=O)N1CCC[C@H]1C(N)=O)[C@@H](C)O)C(C)C)[C@@H](C)O` [Example 86, N-alpha-[(S)-4-Carboxy-4-(19-carboxynonadecanoylamino)butyryl]-[Glu14,Pro37]-pramlintide] ({C20 diacid-γGlu}-KCNTATCATQRLAEFLVHSSNNFGPILPPTNVGSNTP-NH2; disulfide 2-7 (inferred); C-terminus assumed), the EC50 amounted to 0.0525 nM in data set [1] (setting [15]) and 0.055 nM in data set [2]. Further, in data set [3] (ThT fibrillation assay), the “ThT pH 4.0 lag time (h)” value amounted to 5 h. Also, the solubility at 18 h in data set [4] (setting [5]), in data set [4] (setting [6]), in data set [4] (setting [7]), in data set [4] (setting [8]), in data set [4] (setting [9]) and in data set [4] (setting [10]) was over 200 µM in each case. The solubility at 18 h in data set [4] (setting [11]), in data set [4] (setting [12]), in data set [4] (setting [13]) and in data set [4] (setting [14]) was over 200 µM throughout.

What is called EC50 is the concentration that produces a half-maximal response. Broadly, the solubility is the concentration that dissolves in the medium under given conditions.

These data come from patent publication US8722849B2, “Polypeptides” (Novo Nordisk A/S, priority 2011, dated 2014).
